Experimental data reported in BindingDB's records for doi:10.1074/jbc.M113.476234 (The Scripps Research Institute, 2013).

Key:
[1] = biological target: T1, Kappa-type opioid receptor (Homo sapiens, UniProt P41145); test: β-Arrestin2 Assay
[2] = biological target: T1, Kappa-type opioid receptor; test: [35S]GTPγS Coupling Assay

T1 sequence (P41145 whole entry): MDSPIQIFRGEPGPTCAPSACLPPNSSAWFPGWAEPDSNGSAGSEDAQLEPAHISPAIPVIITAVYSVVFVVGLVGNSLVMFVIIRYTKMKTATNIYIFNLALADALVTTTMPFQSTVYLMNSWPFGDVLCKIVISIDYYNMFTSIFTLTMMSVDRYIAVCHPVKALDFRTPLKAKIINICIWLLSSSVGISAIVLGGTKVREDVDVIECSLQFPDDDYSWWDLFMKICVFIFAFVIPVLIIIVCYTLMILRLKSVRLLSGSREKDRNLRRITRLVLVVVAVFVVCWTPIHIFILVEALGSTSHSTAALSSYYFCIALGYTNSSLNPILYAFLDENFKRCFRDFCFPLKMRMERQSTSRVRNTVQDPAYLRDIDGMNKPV

NC(N)=Nc1ccc2[nH]c3c(c2c1)C[C@@]1(O)[C@@H]2Cc4ccc(O)c5c4[C@@]1(CCN2CC1CC1)[C@H]3O5 [5'-Guanidinonaltrindole (5'-GNTI)] was tested, and the IC50 [1] was 0.8 nM and the IC50 [2] was 0.07 nM.
